Assay results from patent US10953027B2, “Active agents and methods of their use for the treatment of metabolic disorders and nonalcoholic fatty liver disease” (Flagship Pioneering Innovations V, Inc., priority 2018, dated 2021).

Experiments:
[1] = Assay 1. Stability in Simulated Gastric Fluid (SGF); format: in vitro ADME; details: 1 μM, 37° C., SGF pH 1.6 with pepsin
Method: Assay 1. Stability of acylated active agents in Simulated Gastric Fluid (SGF). This assay was used to assess the stability of an acylated active agent in a stomach.
Medium was prepared by dissolving 2 g of sodium chloride in 0.6 L of ultrapure water (MilliQ®, Millipore Sigma, Darmstadt, Germany). The pH was adjusted to 1.6 with 1N hydrochloric acid, and the volume was then adjusted to 1 L with purified water.
60 mg FaSSIF powder (Biorelevant™, London, UK) were dissolved in 500 mL buffer (above). Pepsin was added (0.1 mg/mL) (Millipore Sigma, Darmstadt, Germany), and the solution was stirred. The resulting SGF media were used fresh for each experiment.
Test compounds were dissolved in DMSO stock to 1 mM. An aliquot of the DMSO stock solution was removed and diluted in the SGF Media in 15 mL falcon tubes to generate a compound concentration of 1 μM. A 1 mL aliquot was immediately removed and diluted once with 1 volume of acetonitrile for T0 timepoint. The mixture was sealed and mixed at 37° C. in an incubator. Aliquots (1 mL) were removed at regular intervals and immediately quenched by the addition of 1 volume of acetonitrile. The resulting samples were analyzed by LC/MS to determine degradation rates in SGF.

[2] = Assay 2. Stability in Simulated Intestinal Fluid (SIF); format: in vitro ADME; details: 1 μM, 37° C., SIF pH 6.7 with pancreatin
Method: Assay 2. Stability of acylated active agents in Simulated Intestinal Fluid (SIF). This assay was used to assess the stability of an acylated active agent in a small intestine.
Phosphate buffer was prepared by dissolving 0.42 g of sodium hydroxide pellets and 3.95 g of monobasic sodium phosphate monohydrate and 6.19 g of sodium chloride in ultrapure water (MilliQ®, Millipore Sigma, Darmstadt, Germany). The pH was adjusted to 6.7 using aq. HCl and aq. NaOH, as necessary, and the solution was diluted with ultrapure water to produce 1 L of the pH 6.7 buffer.
112 mg FaSSIF powder (Biorelevant™, London, UK) was dissolved in 50 mL of the pH 6.7 buffer. 2 to 3 mL of the resulting solution were then added to 500 mg pancreatin (Millipore Sigma, Darmstadt, Germany). The resulting mixture was agitated by finger tapping the vessel containing the mixture until milky suspension formed. At this time, the remainder of the 50 mL FaSSiF/pH 6.7 buffer solution was added. The resulting suspension was flipped upside down 10 times to produce SIF, which was used fresh.
Test compounds were dissolved in DMSO stock to 1 mM. An aliquot of the DMSO stock solution was removed and diluted in the SIF media in 15 mL falcon tubes to produce a mixture with a tested compound concentration of 1 μM. A 1 mL aliquot was immediately removed and diluted once with 1 volume of acetonitrile for T0 timepoint. The mixture was sealed and agitated at 37° C. in an incubator. Aliquots (1 mL) were removed at regular intervals and immediately quenched by the addition of 1 volume of acetonitrile. The resulting samples were analyzed by LC/MS to determine degradation rates.

Row | SMILES | Assay 1 (SGF) (% Remaining @ 1 hours) [1] | Assay 2 (SIF) (% @ Remaining 4 hours) [2]
1 | CC(=O)Oc1ccc(-c2oc3cc(OC(C)=O)cc(OC(C)=O)c3c(=O)c2OC(C)=O)cc1 [Compound 20, [4-(3,5,7-triacetoxy-4-oxo-chromen-2-yl)phenyl] acetate] | C (C: >75% of the tested compound remaining) | A (A: <25% of the tested compound remaining)
2 | CC(=O)Oc1ccc([C@@H]2CC(=O)c3c(OC(C)=O)cc(OC(C)=O)cc3O2)cc1 [Compound 21, (S)-2-(4-acetoxyphenyl)-4-oxochromane-5,7-diyl Diacetate] | C (C: >75% of the tested compound remaining) | A (A: <25% of the tested compound remaining)
3 | CCCC(=O)Oc1ccc([C@@H]2CC(=O)c3c(OC(=O)CCC)cc(OC(=O)CCC)cc3O2)cc1 [Compound 22, (S)-2-(4-(butyryloxy)phenyl)-4-oxochromane-5,7-diyl dibutyrate] | B (B: 25-75% of the tested compound remaining) | A (A: <25% of the tested compound remaining)
4 | CC(=O)Oc1cc(OC(C)=O)c2c(=O)c(OC(C)=O)c(-c3cc(OC(C)=O)c(OC(C)=O)c(OC(C)=O)c3)oc2c1 [Compound 23, [3,5-diacetoxy-4-oxo-2-(3,4,5-triacetoxyphenyl)chromen-7-yl] acetate] | C (C: >75% of the tested compound remaining) | A (A: <25% of the tested compound remaining)
5 | CC(=O)OCC[C@@H](C)OC(=O)Oc1ccc(/C=C/c2cc(OC(=O)O[C@H](C)CCOC(C)=O)cc(OC(=O)O[C@H](C)CCOC(C)=O)c2)cc1 [Compound 24, [(3R)-3-[4-[(E)-2-[3,5-bis[[(1R)-3-acetoxy-1-methyl-propoxy]carbonyloxy]phenyl]vinyl]phenoxy]carbonyloxybutyl] acetate] | C (C: >75% of the tested compound remaining) | A (A: <25% of the tested compound remaining)
6 | CCCC(=O)Oc1ccc(N)cc1C(=O)O.Cl [Compound 31, 5-amino-2-butanoyloxy-benzoic Acid Hydrochloride] | C (C: >75% of the tested compound remaining) | C (C: >75% of the tested compound remaining)
7 | CCCC(=O)Oc1ccc(/N=N/c2ccc(OC(=O)CCC)c(C(=O)O)c2)cc1C(=O)O [Compound 32, 2-butanoyloxy-5-[(E)-(4-butanoyloxy-3-carboxy-phenyl)azo]benzoic Acid] | A (A: <25% of the tested compound remaining) | A (A: <25% of the tested compound remaining)
8 | CCCC(=O)O[C@@H]1[C@@H](OC(=O)CCC)[C@@H](Oc2ccc(N)cc2C(=O)O)OC[C@H]1OC(=O)CCC [Compound 33, 5-amino-2-[(2R,3R,4S,5R)-3,4,5-tri(butanoyloxy)tetrahydropyran-2-yl]oxy-benzoic Acid] | C (C: >75% of the tested compound remaining) | C (C: >75% of the tested compound remaining)
9 | CCCC(=O)O[C@@H]1[C@@H](OC(=O)CCC)[C@H](Oc2ccc(N)cc2C(=O)O)OC[C@H]1OC(=O)CCC [Compound 34, 5-amino-2-[(2S,3R,4S,5R)-3,4,5-tri(butanoyloxy)tetrahydropyran-2-yl]oxy-benzoic Acid] | C (C: >75% of the tested compound remaining) | C (C: >75% of the tested compound remaining)
10 | C[C@@H](O)CCOC(=O)c1cc(N)ccc1O [Compound 39, [(3R)-3-hydroxybutyl] 5-amino-2-hydroxy-benzoate] | C (C: >75% of the tested compound remaining) | C (C: >75% of the tested compound remaining)
11 | CCCC(=O)Nc1ccc(O)c(C(=O)O)c1 [Compound 40, 5-(butanoylamino)-2-hydroxy-benzoic Acid] | C (C: >75% of the tested compound remaining) | C (C: >75% of the tested compound remaining)
12 | CCCC(=O)O[C@H]1[C@@H](Oc2ccc(N)cc2C(=O)O)OC[C@@H](OC(=O)CCC)[C@H]1OC(=O)CCC [Compound 41, 5-amino-2-(((2R,3R,4R,5R)-3,4,5-tris(butyryloxy)tetrahydro-2H-pyran-2-yl)oxy)benzoic Acid] | C (C: >75% of the tested compound remaining) | C (C: >75% of the tested compound remaining)
13 | CC(=O)Oc1cc(C(=O)O)cc(OC(C)=O)c1OC(C)=O [Compound 44, 3,4,5-triacetoxybenzoic Acid] | C (C: >75% of the tested compound remaining) | B (B: 25-75% of the tested compound remaining)
14 | CC(=O)OC[C@H]1O[C@@H](Oc2c(C)c(C)c3c(c2C)CC[C@@](C)(CCC[C@H](C)CCC[C@H](C)CCCC(C)C)O3)[C@H](OC(C)=O)[C@@H](OC(C)=O)[C@@H]1OC(C)=O [Compound 63, [(2R,3R,4S,5R,6S)-3,4,5-triacetoxy-6-[(2R)-2,5,7,8-tetramethyl-2-[(4R,8R)-4,8,12-trimethyltridecyl]chroman-6-yl]oxy-tetrahydropyran-2-yl]methyl Acetate] | C (C: >75% of the tested compound remaining) | C (C: >75% of the tested compound remaining)
15 | C[C@@H]1CCOC(C)(C(=O)Oc2ccc(/C=C/c3cc(OC(=O)C4(C)OCC[C@@H](C)O4)cc(OC(=O)C4(C)OCC[C@@H](C)O4)c3)cc2)O1 (stereo partly drawn) [Compound 65, [4-[(E)-2-[3,5-bis[[(4R)-2,4-dimethyl-1,3-dioxane-2-carbonyl]oxy]phenyl]vinyl]phenyl] (4R)-2,4-dimethyl-1,3-dioxane-2-carboxylate] | C (C: >75% of the tested compound remaining) | C (C: >75% of the tested compound remaining)
16 | Cc1c(C)c2c(c(C)c1OC(=O)C1OCC[C@@H](C)O1)CC[C@@](C)(CCC[C@H](C)CCC[C@H](C)CCCC(C)C)O2 (stereo partly drawn) [Compound 66, [(2R)-2,5,7,8-tetramethyl-2-[(4R,8R)-4,8,12-trimethyltridecyl]chroman-6-yl] (4R)-4-methyl-1,3-dioxane-2-carboxylate] | C (C: >75% of the tested compound remaining) | A (A: <25% of the tested compound remaining)
17 | C=C1CC[C@H](OC(=O)[C@H](OC(=O)CCC)[C@@H](OC(=O)CCC)[C@H](OC(=O)CCC)[C@@H](COC(=O)CCC)OC(=O)CCC)C/C1=C/C=C1\CCC[C@]2(C)[C@@H]([C@H](C)CCCC(C)C)CC[C@@H]12 [Compound 67, [(1 S,3Z)-3-[(2E)-2-[(1R,3aS,7aR)-1-[(1R)-1,5-dimethylhexyl]-7a-methyl-2,3,3a,5,6,7-hexahydro-1H-inden-4-ylidene]ethylidene]-4-methylene-cyclohexyl] (2R,3S,4R,5R)-2,3,4,5,6-penta(butanoyloxy)hexanoate] | B (B: 25-75% of the tested compound remaining) | A (A: <25% of the tested compound remaining)
